“Also recorded” adds a separate entry of the source.
How the values were obtained:
[1] = test system: Human primary keratinocytes; assay: Long-term culture of keratinocytes: proliferation, morphology, cell condition; format: cell-based
Method: (§1) Human primary keratinocytes were cultured in EpiLife™ medium with or without Y or Y+A supplementation according to the schedule below, and analyzed for extracellular vesicle secretion. 10 μM Y-27632 (Wako) and 0.5 μM A-83-01 (Wako) was used. Collection media was serum-free EpiLife™ medium without inhibitors. Thus, depending on the experiment, or stage of the experiment, human epidermal keratinocytes were cultured in serum free media such as EpiLife™ Medium, without or without small molecule inhibitor(s), namely, 10 μM Y-27632 (Wako) alone, or 10 μM Y-27632 plus 0.5 μM A-83-01 (Wako). [table] Long-term culture of keratinocytes was carried out by adding low molecular weight compounds Y and Y+A.

[2] = test system: Human primary keratinocytes; assay: Extracellular vesicle secretion by cultured keratinocytes, Nanosight analysis of culture supernatant; format: cell-based; settings: compared with normal KC-EVs / keratinocytes without inhibitors
Method: as §1, with “(Wako).” for “(Wako). [table] Long-term culture of keratinocytes was carried out by adding low molecular weight compounds Y and Y+A.”

Compound: CC(N)[C@H]1CC[C@H](C(=O)Nc2ccncc2)CC1 (mixture of isomers) [Y, (+/−)-trans-N-(4-Pyridyl)-4-(1-aminoethyl)-cyclohexanecarboxamide]
- cell proliferation ([1]; compared with culturing normal cells without Y, 10 μM Y-27632): increased; also recorded: enhanced
- cell growth, morphology and cell condition ([1]; long-term culture, micrographs): good cell growth, and good morphology; also recorded: cell morphology was the best
- amount of EVs secreted [2]: increased; also recorded: larger number
